Our source for the IC50 values is patent publication US9890147B2 (BAYER PHARMA AKTIENGESELLSCHAFT, priority 2012, dated 2018).

Experiment [1] has as its target T1, BRD4 (BD1) (Homo sapiens, UniProt O60885).
T1 construct: with relatively long constructs also being possible, preferably amino acids 44-168; made in house; host or cells: E. coli
Put plainly: Binding assay BRD4/acetylated peptide H4 (TR-FRET protein-protein interaction assay). From the text:
Binding Assay BRD4/Acetylated Peptide H4 (“PRO”)
To assess the BRD4 binding of the substances described in the present application, their ability to inhibit the interaction between BRD4 (BD1) and acetylated histone H4 in a dose-dependent manner was quantified (Filippakopoulos et al., Cell, 2012, 149: 214-231).
For this purpose, use was made of a time-resolved fluorescence resonance energy transfer (TR-FRET) assay which measured binding between N-terminally His6-tagged BRD4 (BD1) (amino acids 67-152, with relatively long constructs also being possible, preferably amino acids 44-168) and a synthetic acetylated histone H4 (Ac—H4) peptide having the sequence GRGK(Ac)GGK(Ac)GLGK(Ac)GGAK(Ac)RHGSGSK-biotin. The recombinant BRD4 protein-produced according to Filippakopoulos et al., Cell, 2012, 149: 214-231—was expressed in E. coli and purified by (Ni-NTA) affinity and (Sephadex G-75) size exclusion chromatography. The Ac—H4 peptide is commercially available, for example from Biosyntan (Berlin, Germany). In a typical assay, 11 different concentrations of each substance (0.1 nM, 0.33 nM, 1.1 nM, 3.8 nM, 13 nM, 44 nM, 0.15 μM, 0.51 μM, 1.7 μM, 5.9 μM and 20 μM) were measured in duplicate on the same microtitre plate. To this end, 100-fold concentrated solutions in DMSO were prepared by serial dilution (1:3.4) of a 2 mM stock solution in a clear 384-well microtitre platte (Greiner Bio-One, Frickenhausen, Germany) 50 nl of these were transferred into a black test plate (Greiner Bio-One, Frickenhausen, Germany). The test was started by addition of 2 μl of a 2.5-fold concentrated BRD4 solution (final concentration usually 10 nM in the […] of the reaction volume) in aqueous assay buffer [50 mM HEPES pH 7.5. 50 mM sodium chloride (NaCl), 0.25 mM CHAPS and 0.05% serum albumin (BSA)] to the substances in the test plate. This was followed by a 10-minute incubation step at 22° C. to pre-equilibrate putative complexes between BRD4 and the substances.
The mixture was then incubated in the dark for one hour at 22° C. and then for at least 3 hours and at most overnight at 4° C. Formation of BRD4/Ac—H4 complexes was determined by measuring the resonance energy transfer from the streptavidin-Eu cryptate to the anti-6His-XL665 antibody in the reaction. To this end, the fluorescence emission was measured at 620 nm and 665 nm after excitation at 330-350 nm in a TR-FRET measuring device, for example a Rubystar or Pherastar (both from BMG Lab Technologies, Offenburg, Germany) or a Viewlux (Perkin-Elmer). The ratio of the emission at 665 nm and at […] was used as an indicator for the amount of BRD4/Ac—H4 complexes formed.
The data obtained (ratios) were normalized, with 0% inhibition corresponding to the mean of the measured values of a set of controls (usually 32 data points) comprising all reagents. Here, 50 nl of DMSO (100%) were used instead of test substances. An inhibition of 100% corresponded to the mean of the measured values of a set of controls (usually 32 data points) comprising all reagents except for BRD4. The IC50 was determined by regression analysis based on a 4-parameter equation (minimum, maximum, IC50, Hill; Y=Max+(Min−Max)/(1+(X/IC 50)^Hill)).
For orientation: In TR-FRET formats the signal depends on donor and acceptor labels being close together.

The test system of experiment [2] is MOLM-13 cells. The experiment in a line: Cell proliferation assay (alamarBlue), MOLM-13. In kind it is cell-based. The note with it: Homo sapiens, 96 hours incubation, inhibition of cell proliferation. On the procedure: In accordance with the invention, the capability of the substances to inhibit cell proliferation was determined Cell viability was determined using the alamarBlue® reagent (Invitrogen) in a Victor X3 Multilabel Reader (Perkin Elmer). The excitation wavelength was 530 nm and the emission wavelenth […].
The MOLM-13 cells (DSMZ, ACC 554) were sown at a concentration of 4000 cells/well in 100 μl growth medium (RPMI1640, 10% FCS) on 96-well microtitre plates.
After an overnight incubation at 37° C., the fluorescence values (CI values) were determined. The plates were then treated with various substance dilutions (1E-5 M, 3E-6 M, 1E-6M, 3E-7 M, 1E-7 M, 3E-8 M, 1E-8 M) and incubated at 37° C. for 72 (MV4-11-, LOX-IMVI cells), 96 (MOLM-13-, B16F10-, MDA-MB-431-, Caov-3 cells), 120 (MOLP-8-, KMS-12-PE cells) or 168 (LAPC-4 cells) hours. The fluorescence values (CO values) were then determined. For the data analysis, the CI values were subtracted from the CO values and the results were compared between cells treated with different dilutions of the substance or with buffer solution only. These were used to calculate the IC 50 values (substance concentration required for 50% inhibition of cell proliferation).

On to `CNC(=O)N1N=C(c2cccc(-c3c(C)noc3C)c2)c2cc(OC)c(OC)cc2CC1C` (racemic) [Example 31, (±)-1-[3-(3,5-Dimethylisoxazol-4-yl)phenyl]-7,8-dimethoxy-N,4-dimethyl-4,5-dihydro-3H-2,3-benzodiazepine-3-carboxamide], for which the IC50 in experiment [1] turned out to be 180 nM; in experiment [2] it was 270 nM.

Consider `CNC(=O)N1N=C(c2ccc(Cl)cc2)c2cc(OCCN3CCOCC3)ccc2CC1C` (racemic) [Example 32, (±)-1-(4-Chlorophenyl)-N,4-dimethyl-8-[2-(morpholin-4-yl)ethoxy]-4,5-dihydro-3H-2,3-benzodiazepine-3-carboxamide], for which the IC50 in experiment [1] amounted to 380 nM; in experiment [2], 1180 nM.

On to `CNC(=O)N1N=C(c2ccc(N3CCOC3=O)cc2)c2cc(OC)c(OC)cc2CC1C` (racemic) [Example 34, (±)-7,8-Dimethoxy-N,4-dimethyl-1-[4-(2-oxooxazolidin-3-yl)phenyl]-4,5-dihydro-3H-2,3-benzodiazepine-3-carboxamide], for which the IC50 was 50 nM in experiment [1] and 350 nM in experiment [2].

In turn, `CNC(=O)N1N=C(c2ccc(-c3ccc(C(F)(F)F)nc3)cc2)c2cc(OC)c(OC)cc2C[C@H]1C` [Example 50.2, (4R)-7,8-dimethoxy-N,4-dimethyl-1-{4-[6-(trifluoromethyl)pyridin-3-yl]phenyl}-4,5-dihydro-3H-2,3-benzodiazepine-3-carboxamide] came in with an IC50 in experiment [1] of 18900 nM.

With `CNC(=O)N1N=C(c2ccc(N3CCC(O)CC3)cc2)c2cc(OC)c(OC)cc2C[C@H]1C` [Example 130.2, (4R)-1-[4-(4-Hydroxypiperidin-1-yl)phenyl]-7,8-dimethoxy-N,4-dimethyl-4,5-dihydro-3H-2,3-benzodiazepine-3-carboxamide], the IC50 in experiment [1] was 9870 nM.

Consider `CNC(=O)N1N=C(c2ccc(Cl)cc2)c2cc(OCCCN3CCN(C)CC3)ccc2C[C@H]1C` [Example 164.1, (4R)-1-(4-chlorophenyl)-N,4-dimethyl-8-[3-(4-methylpiperazin-1-yl)propoxy]-4,5-dihydro-3H-2,3-benzodiazepine-3-carboxamide], for which, in experiment [1], the IC50 is over 20000 nM.

`CNC(=O)N1N=C(c2ccc(N3CCC(OC)CC3)cc2)c2cc(OC)c(OC)cc2C[C@H]1C` [Example 179.1, (4R)-7,8-dimethoxy-1-[4-(4-methoxypiperidin-1-yl)phenyl]-N,4-dimethyl-4,5-dihydro-3H-2,3-benzodiazepine-3-carboxamide] displayed an IC50 in experiment [1] of 3770 nM.

As to `CNC(=O)N1N=C(c2ccc(N3CC(C)(O)C3)cc2)c2cc(OC)c(OC)cc2C[C@H]1C` [Example 185.1, (4R)-1-[4-(3-hydroxy-3-methylazetidin-1-yl)phenyl]-7,8-dimethoxy-N,4-dimethyl-4,5-dihydro-3H-2,3-benzodiazepine-3-carboxamide], in experiment [1], the IC50 was determined as 1490 nM.

In experiment [1], `CNC(=O)C1CCN(c2ccc(C3=NN(C(=O)NC)[C@H](C)Cc4cc(OC)c(OC)cc43)cc2)CC1` [Example 189.2, (4R)-7,8-dimethoxy-N,4-dimethyl-1-{4-[4-(methylcarbamoyl)piperidin-1-yl]phenyl}-4,5-dihydro-3H-2,3-benzodiazepine-3-carboxamide] showed an IC50 of 17400 nM.

With `CNC(=O)N1N=C(c2ccc(N3CC[C@H](O)C3)cc2)c2cc(OC)c(OC)cc2C[C@@H]1C` [Example 190.1, (4S)-1-{4-[(3S)-3-hydroxypyrrolidin-1-yl]phenyl}-7,8-dimethoxy-N,4-dimethyl-4,5-dihydro-3H-2,3-benzodiazepine-3-carboxamide], the IC50 in experiment [1] was determined as 30 nM.

The molecule `CNC(=O)N1N=C(c2ccc(N3CCNC(=O)C3)cc2)c2cc(OC)c(OC)cc2C[C@@H]1C` [Example 194, (4S)-7,8-dimethoxy-N,4-dimethyl-1-[4-(3-oxopiperazin-1-yl)phenyl]-4,5-dihydro-3H-2,3-benzodiazepine-3-carboxamide] showed an IC50 in experiment [1] of 480 nM.

As to `CNC(=O)N1N=C(c2ccc(N3C[C@@H](C)O[C@@H](C)C3)cc2)c2cc(OC)c(OC)cc2C[C@@H]1C` [Example 195, (4S)-1-{4-[(2R,6S)-2,6-dimethylmorpholin-4-yl]phenyl}-7,8-dimethoxy-N,4-dimethyl-4,5-dihydro-3H-2,3-benzodiazepine-3-carboxamide], in experiment [1], the IC50 came to 690 nM.

Molecule `CNC(=O)N1N=C(c2ccc(N3C[C@@H](C)N[C@@H](C)C3)cc2)c2cc(OC)c(OC)cc2C[C@@H]1C` [Example 198, (4S)-1-{4-[(3R,5S)-3,5-dimethylpiperazin-1-yl]phenyl}-7,8-dimethoxy-N,4-dimethyl-4,5-dihydro-3H-2,3-benzodiazepine-3-carboxamide] showed an IC50 in experiment [1] of 5300 nM. Compared with the last molecule, the IC50 is about 7.7-fold higher.

Turning to `CC[C@@H]1Cc2cc(OC)c(OC)cc2C(c2ccc(N3CCNCC3)cc2)=NN1C(=O)NC` [Example 202.2, (4R)-4-ethyl-7,8-dimethoxy-N-methyl-1-[4-(piperazin-1-yl)phenyl]-4,5-dihydro-3H-2,3-benzodiazepine-3-carboxamide], the IC50 in experiment [1] worked out at 6540 nM. This IC50 and that of the molecule before are within 1.5-fold of each other.

For the molecule `CC[C@@H]1Cc2cc(OC)c(OC)cc2C(c2ccc(N3CCN(S(C)(=O)=O)CC3)cc2)=NN1C(=O)NC` [Example 203.2, (4R)-4-ethyl-7,8-dimethoxy-N-methyl-1-{4-[4-(methylsulphonyl)piperazin-1-yl]phenyl}-4,5-dihydro-3H-2,3-benzodiazepine-3-carboxamide], the IC50 in experiment [1] was 11200 nM.

With `CNC(=O)N1N=C(c2ccc(Cl)cc2)c2ccc(N3CCOC3=O)cc2C[C@@H]1C` [Example 230.1, (4S)-1-(4-chlorophenyl)-N,4-dimethyl-7-(2-oxo-1,3-oxazolidin-3-yl)-4,5-dihydro-3H-2,3-benzodiazepine-3-carboxamide], in experiment [1], the IC50 turned out to be 330 nM.

The molecule `CNC(=O)N1N=C(c2ccc(-c3c(C)nn(C)c3C)cc2)c2cc(OC(F)(F)F)ccc2C[C@H]1C` [Example 249.2, (4R)-N,4-dimethyl-8-(trifluoromethoxy)-1-[4-(1,3,5-trimethyl-1H-pyrazol-4-yl)phenyl]-4,5-dihydro-3H-2,3-benzodiazepine-3-carboxamide] gave an IC50 in experiment [1] of 2340 nM.

In experiment [1], `CNC(=O)N1N=C(c2ccc(N3CCN(C)CC3)cc2)c2cc(OC(F)(F)F)ccc2C[C@H]1C` [Example 250.1, (4R)-N,4-dimethyl-1-[4-(4-methyl-1-piperazinyl)phenyl]-8-(trifluoromethoxy)-4,5-dihydro-3H-2,3-benzodiazepine-3-carboxamide] showed an IC50 of 9890 nM.

With `CCNC(=O)N1N=C(c2ccc(N3CCN(C)CC3)cc2)c2cc(OC)c(OC)cc2C[C@@H]1C` [Example 261.1, (4S)—N-Ethyl-7,8-dimethoxy-4-methyl-1-[4-(4-methylpiperazin-1-yl)phenyl]-4,5-dihydro-3H-2,3-benzodiazepine-3-carboxamide], the IC50 in experiment [1] stood at 1220 nM.

Usually IC50 stands for the concentration needed to halve the response being measured. Low values mean inhibition by little substance, high ones a need for much substance.
